Assay results as given in patent publication US8268816B2, “Compounds for modulating integrin CD11b/CD18” (priority 2006, dated 2012).
Blank lines part the entries; values can stand above or below the compound they belong to.

Legend:
integrin CD11b/CD18 = target: T1, integrin CD11b/CD18 (Homo sapiens, UniProt P05107+P11215); assay: no-wash cell adhesion assay for agonists: K562 CD11b/CD18 cells on fibrinogen in TBS++; format: cell-based
T1 construct: expressed in transfected cells
Method: Maxisorp microtiter plates (96- and 384-well) were coated with 1-20 μg/mL fibrinogen (Fg) ligand in PBS^++ overnight at 4° C. Subsequently, the Fg-coated wells were washed with TBS and non-specific sites were blocked by incubation with 2% non-fat milk in TBS at room temperature for 30 min. Next, the wells were washed three times with TBS and the coated microtiter plates were used in the HTS assays.
All the adhesion assays were carried out in the screening facility at the Institute of Chemistry and Cell Biology (ICCB), Harvard Medical School using the available small molecule libraries and equipment. Actimol Timtec 1 small molecule library (6,612 compounds) has been previously described (http://iccb.med.harvard.edu/screening/compound_libraries). The small molecule library is stocked in 384-well plates at −80° C. and as sealed plates, with each well's containing a unique compound dissolved in DMSO at approximately 5 mg/mL. […] Adherent cells were quantitated using either cell viability measuring reagents or automated imaging (see below).
For quantitation of adherent cells using a cell viability measuring kit (such as MTS-based CellTiter-One (Promega), CyQuant (Molecular Probes) or Luciferase-based CellTiter-Glo (Promega)), the non-adherent cells were removed by complete aspiration using an automated liquid handling machine (ELx405, Bio-Tek Instruments, VT) and the assay reagent added according to manufacturer's instructions. For automated imaging based quantitation of adherent cells, the non-adherent cells were fixed by adding a small volume of formaldehyde (1.1% v/v final concentration) and the plates were kept inverted for an additional 1 h. Upon cell fixation, the wells were washed with TBS using automated liquid handling machine (ELx405) and the adherent cells were fluorescently labeled with DAPI (0.5 μM final in TBS with 0.1% TritonX-100) and quantitated using automated microscope (see below).
CellWorx automated microscope (Cellomics, Pa.) was set at 0.3 s exposure using DAPI filter set to capture 1-3 images per well. […] Data output files were analyzed using MS Excel. […]

[1] = test system: thioglycolate-induced peritonitis mouse model; assay: thioglycolate-induced peritonitis, neutrophil influx into the peritoneum; format: in vivo, C57BL6 mice; settings: 4 μg i.v. about 5 min after i.p. 4% thioglycolate, lavage at 12 h, flow cytometry
Method: The wild-type (WT) C57BL6 mice of approximately six weeks of age were purchased from Charles River Labs (Boston, Mass.). Mice were injected intraperitoneally with 1 mL of 4% w/v sterile thioglycolate (TG) (Sigma, St. Louis, […].) in PBS. Control mice were injected with PBS alone. Approximately five minutes after TG injection, 4 μg each of compounds IMB-8, -6 or -11 were administered in 0.5 mL PBS through a tail vein injection. Twelve hours post-injection, the percentage of infiltrated neutrophils in the peritoneal lavage was determined using flow cytometry. Cells from the lavage fluid were labeled with FITC-labeled anti-mouse GR1 and PE-labeled anti-mouse CD11b antibodies (BD Pharmingen, Jan Jose, Calif.) and analyzed using FACS Calibur flow cytometer.

integrin CD11a/CD18 = target: T2, integrin CD11a/CD18 (Homo sapiens, UniProt P05107+P20701); assay: adhesion of K562 CD11a/CD18 cells to ICAM1-Fc in TBS++; format: cell-based; settings: dose-response, increasing amounts of small molecule
T2 construct: expressed in transfected cells; host or cells: K562 cells stably expressing CD11a/CD18
T2 sequence (P20701 26-1170): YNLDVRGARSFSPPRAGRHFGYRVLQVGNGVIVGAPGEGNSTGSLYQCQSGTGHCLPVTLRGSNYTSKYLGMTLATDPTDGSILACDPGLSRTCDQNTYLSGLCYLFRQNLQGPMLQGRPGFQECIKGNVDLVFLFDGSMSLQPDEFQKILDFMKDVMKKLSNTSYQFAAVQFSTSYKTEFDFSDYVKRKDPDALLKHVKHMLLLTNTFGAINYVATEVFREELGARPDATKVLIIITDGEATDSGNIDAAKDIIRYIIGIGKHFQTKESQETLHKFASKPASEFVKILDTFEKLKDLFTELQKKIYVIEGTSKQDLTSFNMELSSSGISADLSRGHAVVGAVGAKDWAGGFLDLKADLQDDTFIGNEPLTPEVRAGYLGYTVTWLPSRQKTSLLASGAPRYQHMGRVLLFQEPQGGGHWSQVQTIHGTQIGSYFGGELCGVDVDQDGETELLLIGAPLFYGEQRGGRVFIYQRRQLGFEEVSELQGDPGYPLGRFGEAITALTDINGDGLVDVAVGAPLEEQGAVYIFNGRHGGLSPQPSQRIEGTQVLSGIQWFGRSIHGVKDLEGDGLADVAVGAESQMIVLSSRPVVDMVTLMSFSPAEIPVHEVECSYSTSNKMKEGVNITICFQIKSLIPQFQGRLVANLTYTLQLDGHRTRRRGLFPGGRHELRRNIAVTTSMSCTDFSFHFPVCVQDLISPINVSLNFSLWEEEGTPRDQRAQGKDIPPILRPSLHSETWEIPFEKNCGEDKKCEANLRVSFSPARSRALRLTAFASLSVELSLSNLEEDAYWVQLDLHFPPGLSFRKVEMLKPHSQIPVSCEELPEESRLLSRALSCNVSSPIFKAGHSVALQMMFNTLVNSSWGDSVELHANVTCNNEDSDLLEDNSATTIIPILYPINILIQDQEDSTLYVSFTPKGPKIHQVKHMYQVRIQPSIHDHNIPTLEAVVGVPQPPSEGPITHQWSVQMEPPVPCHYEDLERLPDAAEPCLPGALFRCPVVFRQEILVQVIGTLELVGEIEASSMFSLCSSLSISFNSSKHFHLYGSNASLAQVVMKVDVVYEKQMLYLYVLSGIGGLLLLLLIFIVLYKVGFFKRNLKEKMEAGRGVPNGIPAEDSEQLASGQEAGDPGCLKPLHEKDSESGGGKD
T2 sequence (P05107 23-769): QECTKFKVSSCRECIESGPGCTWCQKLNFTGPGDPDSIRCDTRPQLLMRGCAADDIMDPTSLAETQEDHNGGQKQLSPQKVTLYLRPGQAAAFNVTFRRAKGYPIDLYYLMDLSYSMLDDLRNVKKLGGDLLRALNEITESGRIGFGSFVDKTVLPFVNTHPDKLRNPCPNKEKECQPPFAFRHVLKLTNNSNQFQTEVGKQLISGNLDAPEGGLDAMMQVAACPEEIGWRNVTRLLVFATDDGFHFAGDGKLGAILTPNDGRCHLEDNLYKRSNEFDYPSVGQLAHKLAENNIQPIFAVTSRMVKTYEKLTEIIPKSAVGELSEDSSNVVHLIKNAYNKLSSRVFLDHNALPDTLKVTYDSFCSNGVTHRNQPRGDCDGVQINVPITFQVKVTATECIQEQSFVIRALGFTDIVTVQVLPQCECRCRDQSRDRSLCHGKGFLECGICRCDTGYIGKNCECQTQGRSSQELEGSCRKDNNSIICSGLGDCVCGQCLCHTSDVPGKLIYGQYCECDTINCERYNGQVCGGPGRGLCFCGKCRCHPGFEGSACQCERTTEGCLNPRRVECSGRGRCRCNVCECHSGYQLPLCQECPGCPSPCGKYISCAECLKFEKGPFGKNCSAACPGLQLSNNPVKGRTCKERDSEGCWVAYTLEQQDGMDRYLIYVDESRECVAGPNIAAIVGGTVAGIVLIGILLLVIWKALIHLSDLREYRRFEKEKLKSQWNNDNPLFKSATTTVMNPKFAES
Method: Maxisorp microtiter plates (384-well) were coated with 1-20 μg/mL fibrinogen (Fg), 4 μg/mL iC3b or 0.375 μg/mL ICAM1-Fc ligands in PBS^++ overnight at 4° C.
For the adhesion assay in 384-well plates, the K562 cells were washed with TBS and cells (30,000/well) were transferred to the ligand-coated wells (Fg for CD11b/CD18 and ICAM1-Fc (R&D Systems, Minneapolis, Minn.) for CD11a/CD18) of microtiter plates in the assay buffer (TBS containing 1 mM each of Ca^2+ and Mg^2+ (TBS^++). Compounds were transferred to each well and the assay plates were incubated at 37° C. in the presence of small molecule compounds and were incubated with small molecules for 30 min. In order to dislodge the non-adherent cell, the assay plates were gently inverted and kept in the inverted position for 20 min at room temperature. Adherent cells were quantified using either cell viability measuring reagents or automated imaging (see below).

T1 sequence (P05107 23-769, other chains not shown): as the sequence (P05107 23-769) above

EC50 (integrin CD11b/CD18; secondary screen, read-out: EC50, concentration required for half-maximal increase in cell-adhesion): ~6.7 µM
SMILES: N=C1SC(=Cc2ccco2)C(=O)N1c1nccs1 [Compound 9]

selectivity for integrin CD11b/CD18 over integrin CD11a/CD18 in cell adhesion (integrin CD11b/CD18; K562 CD11b/CD18 on fibrinogen versus K562 CD11a/CD18 on ICAM1): selectively increased adhesion
SMILES: O=C1CSC(NC(=O)N2c3ccccc3Sc3ccccc32)=N1 [Compound 11]
neutrophil influx into the peritoneum due to TG injection [1]: reduce leukocyte recruitment
neutrophil influx into the peritoneum due to TG injection ([1]; listed as compound 11): remarkable decrease

adhesion of K562 cells stably expressing integrin CD11a/CD18 to ICAM1 (integrin CD11a/CD18): increased equally well the adhesion
adhesion of K562 cells stably expressing integrin CD11b/CD18 to fibrinogen (integrin CD11b/CD18; dose-response, increasing amounts of small molecule, TBS++): increased equally well the adhesion
SMILES: Cc1ccccc1N1C(=O)/C(=C/C=C/c2ccccc2)SC1=S [IMB-10, reference compound]
